From patent publication US20170105981A1, “METHODS FOR STABILIZING HYPOXIA INDUCIBLE FACTOR-2 ALPHA AS A METHOD FOR TREATING CANCER” (The Ohio State Innovation Foundation, priority 2011, published 2017)

What was measured:
[1] = test system: A375 human melanoma cells; assay: A375 human melanoma tumors in SCID mice; format: in vivo; conditions: at the time of sacrifice; stabilizer 17 mg/kg, docetaxel 1 mg/kg, IP 3 times per week
Procedure: 6-8-week-old C57BL/6 mice or SCID mice were injected with 1×10^5 B16F10 murine melanoma cells or 1×10^6 A375 human melanoma cells, respectively, subcutaneously on the left flank. […] Tumor diameters were measured 3 times per week with calipers, and tumor volumes will be calculated as follows: Tumor volume=0.5×[(large diameter)×(small diameter)^2].
In the study, immunocompromised SCID mice were inoculated with A375 human melanoma tumors subcutaneously. Starting when the tumors became palpable (7 days after injection), mice were treated with either the cytotoxic chemotherapy docetaxel or with the disclosed HIF-2α stabilizer. The disclosed HIF-2α stabilizer was given at a dose of 17 mg/kg, and the docetaxel was given at 1 mg/kg. Both drugs were given IP 3 times per week. […] At the time of sacrifice, the tumors in the mice that received only the disclosed HIF-2α stabilizer were approximately 78% of the size of the control tumors, the tumors of the mice that received only chemotherapy were approximately 50% of the size of the control tumors, and the tumors of the mice that received both drugs were approximately 16% of the size of the control tumors.

VEGF mRNA = assay: Real-time PCR of VEGF mRNA within B16F10 tumors; format: in vivo, mice; conditions: p=0.490, FIG. 13B
Procedure: (§1) Human monocytes were left untreated or were stimulated with 100 ng/mL GM-CSF at normoxia or at 0.5% O2. At various time-points, cells were harvested in Trizol reagent (Invitrogen) and RNA was extracted in chloroform and then purified using the RNeasy Minikit (Qiagen). In murine studies, organs harvested at the time of euthanasia were flash-frozen in liquid nitrogen, pulverized in liquid nitrogen, and then dissolved in Trizol. cDNA was generated from 1 μg of RNA using the Superscript First Strand Synthesis System (Invitrogen) and used for real-time PCR using previously described primers and SYBR Green PCR Master Mix (Applied Biosciences), according to the manufacturer's instructions. Data were analyzed according to the comparative threshold method and normalized against the β-actin internal control transcript. Results are semi-quantitative and represent the fold difference in transcript levels in a particular sample as compared with levels in untreated cells from the same donor.
6-8-week-old C57BL/6 mice were injected with 1×10^5 B16F10 murine melanoma cells murine subcutaneously on the left flank. […] Tumor diameters were measured 3 times per week with calipers, and tumor volumes will be calculated as follows: Tumor volume=0.5×[(large diameter)×(small diameter)^2]. […]

sVEGFR-1 = sVEGFR-1 production by human peripheral blood monocytes (ELISA, real-time PCR); format: cell-based; conditions: monocytes stimulated with GM-CSF alone; FIG. 11D
Procedure: (§2) Human peripheral blood mononuclear cells (PBMCs) were isolated from fresh peripheral blood leukocyte source packs (American Red Cross, Columbus Ohio) by density gradient centrifugation over Lymphocyte Separation Medium (Cellgro). Monocytes were purified from total PBMCs by layering over FBS. Monocytes were cultured in endotoxin-free RPMI-1640 supplemented with 1% fetal bovine serum (FBS), 0.1% human serum albumin (HSA), and 10 μg/mL of the endotoxin inhibitor polymyxin B. In some experiments, freshly isolated monocytes were differentiated into macrophages by three-day culture in media containing 10% FBS, 1% PSA (penicillin G sodium, streptomycin sulfate, and amphotericin B), and 20 ng/mL M-CSF. Macrophages were serum-starved for 2 hours prior to stimulation. Monocytes or monocyte-derived macrophages were treated for 24 hours with 10 ng/mL GM-CSF, 10 μM disclosed HIF-2α stabilizer, or an equivalent volume of the vehicle controls (PBS or DMSO, respectively). Cell-free culture supematants were harvested and analyzed for VEGF or sVEGFR-1 by ELISA (R&D Systems).
as §1

[2] = test system: B16F10 murine melanoma cells; assay: Murine melanoma tumor model (B16F10 in C57BL/6 mice); format: in vivo
Procedure: Mice were injected with 1×10^5 B16F10 murine melanoma cells murine subcutaneously on the left flank. Once tumors become palpable (approximately 5 days), mice were randomly allocated to receive treatment with either: 20% polyethylene glycol (PEG) in 5% […] (vehicle control for the disclosed HIF-2α stabilizer) and PBS (vehicle control for GM-CSF), 20% PEG and GM-CSF (100 ng per mouse in a 50 μL volume), the disclosed HIF-2α stabilizer (17.5 mg/kg in a 100 μL volume) and PBS, or the disclosed HIF-2α stabilizer and GM-CSF (same doses). The PBS and GM-CSF were administered intratumorally, while the 20% PEG and the disclosed HIF-2α stabilizer were administered intraperitoneally. Mice were treated 3 times per week until tumors reached a size of 20 mm in any dimension (approximately 2.5 weeks), at which point mice were euthanized, in accordance with institutional policy. Tumor diameters were measured 3 times per week with calipers, and tumor volumes were calculated as follows: Tumor volume=0.5×[(large diameter)×(small diameter)^2].
6-8-week-old C57BL/6 mice were injected with 1×10^5 B16F10 murine melanoma cells murine subcutaneously on the left flank. Once tumors become palpable (approximately 5 days), mice were randomly allocated to receive treatment with either: 20% PEG-400 in 5% sucrose (vehicle for disclosed HIF-2α stabilizer) and PBS (vehicle for GM-CSF), 20% PEG-400 and GM-CSF (100 ng per mouse in a 50 μL volume), disclosed HIF-2α stabilizer (17.5 mg/kg mouse weight in a 100 μL volume) and PBS, or the disclosed HIF-2α stabilizer and GM-CSF (same concentrations). The disclosed HIF-2α stabilizer (or the vehicle control) was administered intraperitoneally, while GM-CSF (or the vehicle control) was administered intratumorally. Mice were treated […] 3 times per week until tumors reached a size of 20 mm in any dimension (approximately 2.5 weeks), at which point mice were be euthanized, in accordance with institutional policy. Tumor diameters were measured 3 times per week with calipers, and tumor volumes will be calculated as follows: Tumor volume=0.5×[(large diameter)×(small diameter)^2]. For experiments analyzing the effect of neutralizing sVEGFR-1 in combination with disclosed HIF-2α stabilizer treatment, mice were treated intraperitoneally 3×/week with either disclosed HIF-2α stabilizer or vehicle control, and intratumorally with either 4 μg anti-VEGFR-1 neutralizing antibody (R&D Systems) or 4 μg polyclonal goat IgG isotype control (Santa Cruz Biotechnology) in a 50 μL volume. All protocols were approved by the Ohio State University Animal Care and Use Committee, and mice were treated in accordance with institutional guidelines for animal care.
The ANOVA test was used to compare independent measurements between multiple treatment groups. The data was log-transformed to normalize the variance across groups. P-values were adjusted using the Holm's procedure to conserve the type I error at 0.05 due to the multiple comparisons. For tumor growth data, changes in tumor volume over time were assessed via a longitudinal model. Tumor values were log-transformed, and estimated slopes (changes in tumor volume over time) were calculated with 95% confidence intervals. Estimated differences in tumor volume were calculated by a random-effects regression of the longitudinal data. For all analyses, p≦0.05 was considered statistically significant.
6-8-week-old C57BL/6 mice or SCID mice were injected with 1×10^5 B16F10 murine melanoma cells or 1×10^6 A375 human melanoma cells, respectively, subcutaneously on the left flank. […]

VEGF = VEGF production by human peripheral blood monocytes (ELISA, real-time PCR); format: cell-based; conditions: FIG. 11C
Procedure: as §2
as §1, with “donor. […]” for “donor.”

**Q.** `CC(=O)O[C@@]12CO[C@@H]1C[C@H](O)[C@@]1(C)C(=O)[C@H](O)C3=C(C)[C@@H](OC(=O)[C@H](O)[C@@H](NC(=O)OC(C)(C)C)c4ccccc4)C[C@@](O)([C@@H](OC(=O)c4ccccc4)[C@H]21)C3(C)C` [docetaxel, reference compound] was tested. Which “tumor size as % of the size of the control tumors” value [1] did it give?
**A.** approximately 50%

**Q.** How did the “levels of intratumoral VEGF vs vehicle control-treated mice” value (VEGF mRNA) turn out when “GM-CSF: granulocyte-macrophage colony-stimulating factor” was run?
**A.** failed to increase

**Q.** And the “monocyte production of sVEGFR-1” value (sVEGFR-1)?
**A.** induced

**Q.** And the “tumor volume reduction, GM-CSF given I.T. vs I.P.” value ([2]; B16F10 melanoma, stabilizer 17 mg/kg I.P. in all cases, no control group, FIG. 4)?
**A.** greater reduction of tumor volume

**Q.** And the “tumor growth / tumor volume” value ([2]; B16F10 melanoma, stabilizer 17 mg/kg I.P., GM-CSF I.T., vs PBS control, FIG. 3)?
**A.** reduction in tumor volume

**Q.** What about the “average tumor volumes vs vehicle controls” value ([2]; day 16 of treatment, 3×/week, GM-CSF 100 ng/mouse intratumoral, stabilizer 17.5 mg/kg intraperitoneal, each p<0.001) of the same molecule?
**A.** significantly smaller

**Q.** And the “VEGF protein in supernatants (free VEGF ELISA)” value (VEGF; GM-CSF-stimulated monocytes, VEGF neutralized by sVEGFR-1)?
**A.** undetectable

**Q.** What about the VEGF transcript levels (VEGF; monocytes stimulated with GM-CSF alone) of the same molecule?
**A.** increased VEGF production
